Laboratory results published in US9539223B2, “Methods for treating bacterial infections” (Neoculi Pty Ltd., priority 2013, dated 2017).
In brackets after ≈: the same amount, converted by molar mass.

What was measured:
MRSA isolates = assay: MBC test (CLSI), MRSA isolates; type: cell-based, Staphylococcus aureus
Protocol: There was an obvious reduction in the number of bacteria with increasing concentration, but growth was present compared with no growth for S. aureus. […] Each MBC test was performed in duplicate.

[1] = system: E. coli ATCC 25922 spheroplasts; assay: Activity against spheroplasts (colony forming units over 24 hours); type: cell-based, Escherichia coli
Protocol: E. coli ATCC 25922 was grown overnight on agar at 37° C. Two colonies from the overnight incubation were used to inoculate ˜20 ml of cation adjusted mueller hinton broth. Inoculated broth was incubated for 18 hours at 37° C. […] Formation of spheroplasts was checked using a phase contrast microscope.
Fifty microliters of DMSO only was added to the control test tube. Spheroplasts were incubated for 24 hours with 20 μl samples taken at 0, 2, 4, 6, 8 and 24 hours. Twenty microliter samples were serially diluted 1:10 and 10 ul samples of appropriate dilutions were spotted in triplicate onto brain heart infusion agar. Brain heart infusion agar was incubated at 37° C. for 48 hours and colonies were counted at 24 and 48 hours to determine the number of colony forming units.

[2] = system: Staphylococcus pseudintermedius; assay: MBC testing (CLSI), S. pseudintermedius isolates; type: cell-based
Protocol: After the MICs were determined, the minimum bactericidal concentrations were performed to determine if these compounds are bacteriostatic or bacteriocidal.

[3] = system: RNA synthesis in S. aureus ATCC 29213; assay: RNA synthesis, [3H] uridine incorporation; type: cell-based, Staphylococcus aureus; settings: 0.25 to 8-fold the MIC
Protocol: Cells were grown at 35° C. overnight on Trypticase Soy agar. A colony from the plate was used to inoculate 10 ml of Mueller Hinton broth II (MHBII), and the culture was grown to early exponential growth phase (OD600=0.2 to 0.3) while incubating in a shaker at 35° C. and 200 rpm.
When cells reached early exponential phase, 100 μl of culture was added to triplicate wells containing various concentrations of test compound or control antibiotics (5 μl) at 20× the final concentration in 100% DMSO. A 5% DMSO treated culture served as the “no drug” control for all experiments. Cells were added in MHBII at 105% to account for the volume of drug added to each reaction or in M9 minimal medium for protein synthesis reactions. Following 15 min incubation at room temperature, either [3H] thymidine (DNA synthesis), [3H] uridine (RNA synthesis) or [3H] leucine (protein synthesis) was added at 0.5-1.0 μCi per reaction, depending on the experiment. Reactions were allowed to proceed at room temperature for 15-30 min and then stopped by adding 12 μl of cold 5% trichloroacetic acid (TCA) or 5% TCA/2% casamino acids (protein synthesis only). […] After washing three times with 5 ml of cold 5% TCA, the filters were rinsed two times with 5 ml 100% ethanol, allowed to dry, and then counted using a Beckman LS3801 liquid scintillation counter.

S. pneumoniae = assay: MBC, pneumococcal isolates; type: cell-based, Streptococcus pneumoniae; settings: isolate WCH16
Protocol: [Micro-broth dilutions and 96-well trays are prepared by the following method: 90 μL of 4% LHB: CAMHB is aliquotted into all wells using a multichannel pipette. 90 μl of working antimicrobial stocks were no serial diluted down the tray by a 1:2 dilution. Negative broth controls and dilution control were taken into account when planning the set up of a 96-well tray.] 10 μL of bacterial suspension was then added to the appropriate wells in the 96 well tray. Appropriate positive (no antimicrobial), negative (no antimicrobial or bacteria) and negative dilution (a serial dilution control of antimicrobial and broth) controls were included in each assay. […] The MBC was determined by a 99.95% inhibition of S. pneumoniae, taking into account the dilution factor. MICs and MBCs were determined in quadruplicate and the mode was taken as the representative value. The MIC50, MIC90 and MIC range and MBC50, MBC90 and MBC range were determined according to CLSI standards. The MIC50 and MIC90, or MBC50 and MBC90, are defined by the lowest concentrations which, when all the MICs and MBCs of the isolates are arranged from lowest to highest, inhibited the 50th and 90th percentile of the total amount of isolates, respectively.

[4] = system: Staphylococcus pseudintermedius; assay: MIC testing (CLSI), S. pseudintermedius isolates; type: cell-based

N=C(N/N=C/c1ccc(Cl)cc1)N/N=C/c1ccc(Cl)cc1 [NCL812, 1,2-bis[(E)-(4-chlorophenyl)methylideneamino]guanidine]
MBC test: growth on Sheep Blood Agar (MRSA isolates; MRSA 1, 4 μg/ml): 0 | MBC test: growth on Sheep Blood Agar (MRSA isolates; MRSA 1, 8 μg/ml): 0 | MBC test: growth on Sheep Blood Agar (MRSA isolates; MRSA 1, 16 μg/ml): 0 | MBC test: growth on Sheep Blood Agar (MRSA isolates; MRSA 1, 32 μg/ml): 0 | MBC test: growth on Sheep Blood Agar (MRSA isolates; MRSA 3, 4 μg/ml): 0 | MBC test: growth on Sheep Blood Agar (MRSA isolates; MRSA 3, 16 μg/ml): 0 | MBC test: growth on Sheep Blood Agar (MRSA isolates; MRSA 3, 32 μg/ml): 0 | MBC test: growth on Sheep Blood Agar (MRSA isolates; MRSA 4, 4 μg/ml): 0 | MBC test: growth on Sheep Blood Agar (MRSA isolates; MRSA 4, 8 μg/ml): 0 | MBC test: growth on Sheep Blood Agar (MRSA isolates; MRSA 4, 16 μg/ml): 0 | MBC test: growth on Sheep Blood Agar (MRSA isolates; MRSA 4, 32 μg/ml): 0 | MBC test: growth on Sheep Blood Agar (MRSA isolates; MRSA 5, 4 μg/ml): 0 | MBC test: growth on Sheep Blood Agar (MRSA isolates; MRSA 5, 8 μg/ml): 0 | MBC test: growth on Sheep Blood Agar (MRSA isolates; MRSA 5, 16 μg/ml): 0 | MBC test: growth on Sheep Blood Agar (MRSA isolates; MRSA 5, 32 μg/ml): 0 | MBC test: growth on Sheep Blood Agar (MRSA isolates; MRSA 6, 4 μg/ml): 0 | MBC test: growth on Sheep Blood Agar (MRSA isolates; MRSA 6, 8 μg/ml): 0 | MBC test: growth on Sheep Blood Agar (MRSA isolates; MRSA 6, 16 μg/ml): 0 | MBC test: growth on Sheep Blood Agar (MRSA isolates; MRSA 6, 32 μg/ml): 0 | MBC test: growth on Sheep Blood Agar (MRSA isolates; MRSA 7, 4 μg/ml): 0 | MBC test: growth on Sheep Blood Agar (MRSA isolates; MRSA 7, 16 μg/ml): 0 | MBC test: growth on Sheep Blood Agar (MRSA isolates; MRSA 7, 32 μg/ml): 0 | MBC test: growth on Sheep Blood Agar (MRSA isolates; MRSA 8, 8 μg/ml): 0 | MBC test: growth on Sheep Blood Agar (MRSA isolates; MRSA 8, 16 μg/ml): 0 | MBC test: growth on Sheep Blood Agar (MRSA isolates; MRSA 8, 32 μg/ml): 0 | MBC test: growth on Sheep Blood Agar (MRSA isolates; MRSA 9, 4 μg/ml): 0 | MBC test: growth on Sheep Blood Agar (MRSA isolates; MRSA 9, 8 μg/ml): 0 | MBC test: growth on Sheep Blood Agar (MRSA isolates; MRSA 9, 16 μg/ml): 0 | MBC test: growth on Sheep Blood Agar (MRSA isolates; MRSA 9, 32 μg/ml): 0 | MBC test: growth on Sheep Blood Agar (MRSA isolates; MRSA 10, 4 μg/ml): 0 | MBC test: growth on Sheep Blood Agar (MRSA isolates; MRSA 10, 8 μg/ml): 0 | MBC test: growth on Sheep Blood Agar (MRSA isolates; MRSA 10, 16 μg/ml): 0 | MBC test: growth on Sheep Blood Agar (MRSA isolates; MRSA 10, 32 μg/ml): 0 | MBC test: growth on Sheep Blood Agar (MRSA isolates; MRSA 11, 8 μg/ml): 0 | MBC test: growth on Sheep Blood Agar (MRSA isolates; MRSA 11, 16 μg/ml): 0 | MBC test: growth on Sheep Blood Agar (MRSA isolates; MRSA 11, 32 μg/ml): 0 | MBC test: growth on Sheep Blood Agar (MRSA isolates; MRSA 12, 4 μg/ml): 0 | MBC test: growth on Sheep Blood Agar (MRSA isolates; MRSA 12, 16 μg/ml): 0 | MBC test: growth on Sheep Blood Agar (MRSA isolates; MRSA 12, 32 μg/ml): 0 | MBC test: growth on Sheep Blood Agar (MRSA isolates; MRSA 13, 4 μg/ml): 0 | MBC test: growth on Sheep Blood Agar (MRSA isolates; MRSA 13, 8 μg/ml): 0 | MBC test: growth on Sheep Blood Agar (MRSA isolates; MRSA 13, 16 μg/ml): 0 | MBC test: growth on Sheep Blood Agar (MRSA isolates; MRSA 13, 32 μg/ml): 0 | MBC test: growth on Sheep Blood Agar (MRSA isolates; MRSA 14, 4 μg/ml): 0 | MBC test: growth on Sheep Blood Agar (MRSA isolates; MRSA 14, 8 μg/ml): 0 | MBC test: growth on Sheep Blood Agar (MRSA isolates; MRSA 14, 16 μg/ml): 0 | MBC test: growth on Sheep Blood Agar (MRSA isolates; MRSA 14, 32 μg/ml): 0 | MBC test: growth on Sheep Blood Agar (MRSA isolates; MRSA 516, 4 μg/ml): 0 | MBC test: growth on Sheep Blood Agar (MRSA isolates; MRSA 516, 8 μg/ml): 0 | MBC test: growth on Sheep Blood Agar (MRSA isolates; MRSA 516, 16 μg/ml): 0 | MBC test: growth on Sheep Blood Agar (MRSA isolates; MRSA 516, 32 μg/ml): 0 | MBC test: growth on Sheep Blood Agar (MRSA isolates; MRSA 570, 4 μg/ml): 0 | MBC test: growth on Sheep Blood Agar (MRSA isolates; MRSA 570, 8 μg/ml): 0 | MBC test: growth on Sheep Blood Agar (MRSA isolates; MRSA 570, 16 μg/ml): 0 | MBC test: growth on Sheep Blood Agar (MRSA isolates; MRSA 570, 32 μg/ml): 0 | MBC test: growth on Sheep Blood Agar (MRSA isolates; MRSA 580, 4 μg/ml): 0 | MBC test: growth on Sheep Blood Agar (MRSA isolates; MRSA 580, 8 μg/ml): 0 | MBC test: growth on Sheep Blood Agar (MRSA isolates; MRSA 580, 16 μg/ml): 0 | MBC test: growth on Sheep Blood Agar (MRSA isolates; MRSA 580, 32 μg/ml): 0 | MBC test: growth on Sheep Blood Agar (MRSA isolates; MRSA 606, 4 μg/ml): 0 | MBC test: growth on Sheep Blood Agar (MRSA isolates; MRSA 606, 8 μg/ml): 0 | MBC test: growth on Sheep Blood Agar (MRSA isolates; MRSA 606, 16 μg/ml): 0 | MBC test: growth on Sheep Blood Agar (MRSA isolates; MRSA 606, 32 μg/ml): 0 | MBC test: growth on Sheep Blood Agar (MRSA isolates; MRSA 610, 4 μg/ml): 0 | MBC test: growth on Sheep Blood Agar (MRSA isolates; MRSA 610, 16 μg/ml): 0 | MBC test: growth on Sheep Blood Agar (MRSA isolates; MRSA 610, 32 μg/ml): 0 | concentration with significant decrease in colony forming units over time [1]: ≥ 32 µg/mL | activity based on minimal bactericidal concentrations (MBC) [2]: bactericidal | inhibition of RNA synthesis [3]: very similar to the DNA synthesis study | MBC (S. pneumoniae): autolysis | MIC50 ([4]; Staphylococcus pseudintermedius, 23 S. pseudintermedius isolates): 2 µg/mL (≈ 5.98 µM) | susceptibility based on MICs ([4]; all 23 isolates (MSSP and MRSP)): susceptible
